Common to all, as to type: cell-based, mouse
The subject of one test is BMMs. The experiment in a line: Bone resorption assay on hydroxyapatite-coated Osteo Assay plates. The conditions noted are these: 25 nM, compared with the control group. The method, then: To explore the effect of DZNep on the function of osteoclast, BMMs on complete α-MEM were seeded at the density of 1 × 10^4 cells/well, in triplicate, on the Osteo Assay Surface plates (Corning, NY, USA). After thirty-six hours, the culture medium was replaced by complete α-MEM, with RANKL (50 ng/mL), and various doses of DZNep (control, 6.25, 12.5, and 25 nM). For EZH2 gene knockdown studies, the cells were transfected with virus constructed of different EZH2 short hairpin RNA (shRNA) and negative control shRNA by mixed with polybrene (final concentration of 10ug/ml) for 48 h. The transfection mixture was then replaced by complete α-MEM added with puromycin for 24 h, and the survived BMMs were seeded into a 96-well plate, in triplicate, at a density of 1 × 10^4 cells/well. The medium needs to be constantly replaced until the osteoclast had matured for 1 day. For Foxc1 inhibition experiment, the cells were separately transfected with negative control siRNA, negative control siRNA with DZNep, and Foxc1 small interfering RNA (siRNA) with DZNep and by mixed with transfection reagent and osteoclast culture medium. The transfection mixture was then replaced every 2 days until the osteoclast had been observed for 2 days. […] The total area of resorption was photographed and then calculated by ImageJ software (NIH, Bethesda, MD, USA).

Another test relates to NF-κB signaling pathway. Briefly: Western blotting and immunofluorescence of NF-κB signaling pathway. The method, then:
(§1) To explore the variation of the proteins on long-term activated signaling, BMMs were cultured in α-MEM containing M-CSF (30 ng/ml) and RANKL (50 ng/ml) at a density of 2 × 10^5 cells/well on 6-well plates. After 24 h, the BMMs were treated with or without 25 nM DZNep for 0, 1, 3, and 5 days, and total protein was obtained, respectively, on these specific time points. To determine the effect of DZNep on the protein of short-time activated phosphorylated, RAW264.7 cells were cultured in α-MEM at a density of 5 × 10^5 cells/well on 6-well plates. One day later, the cells were treated with the serum-free α-MEM in the presence or absence of DZNEP for 3 hand then stimulated with 50 ng/mL RANKL for 0, 10, 20, 30, and 60 min. To determine the efficiency of EZH2 shRna, BMMs were cultured in α-MEM at a density of 5 × 10^5 cells/well on 6-well plates. One day later, the cells were treated with negative control shRNA or different EZH2 shRNA for 2 days. To determine the efficiency of Foxc1 siRna, BMMs were cultured in α-MEM at a density of 5 × 10^5 cells/well on 6-well plates. […] After TBST wash for 3 times, the secondary fluorescence antibodies were incubated without light for 1 h at room temperature and the reactivity was visualized by using Odyssey V3.0 image scanning (Li-COR. Inc., Lincoln, NE, USA). […]
(In western blotting, separated proteins are transferred to a membrane and probed.)

The test system of another test is MAPKs signaling pathways. The experiment in a line: Western blotting of MAPKs signaling pathways. The conditions noted are these: RAW264.7, 25 nM pretreatment, vs control. The method, then: as §1

Data on one molecule can be found in paper PMC8686256, “DZNep promotes mouse bone defect healing via enhancing both osteogenesis and osteoclastogenesis” (Stem Cell Research & Therapy, 2021).

Structures are written as SMILES.

For the molecule `Nc1nccc2c1ncn2C1C=C(CO)C(O)C1O` (stereo not shown) [DZNep, 3-Deazaneplanocin], the bone resorption area result with BMMs is on record as “more than 30%”. Moreover, in the test with NF-κB signaling pathway (25 nM pretreatment, then RANKL), the NF-κB nuclear translocation entry was “enhancement of NF-κB nuclear translocation”. The “phosphorylation of IKK, IκB, and p65” value in the test on NF-κB signaling pathway (RAW264.7, 25 nM pretreatment, RANKL for specific times) is “further promoted over time”. Besides, the “phosphorylation of JNK, p38, and ERK” value in the test with MAPKs signaling pathways is on record as “comparable”.
